Measured values published in patent publication US8138118B2, “Use of hydroxyaromatics as safeners” (Bayer CropScience AG, priority 2003, dated 2012).

Tests used:
Assay type in all cases: in vivo
Amaranthus retroflexus = assay: Post-emergence application of herbicide and safener by the tank mix method, herbicidal action on weed; settings: four weeks
Description: (§1) Seeds of various crop plants and weed species were sown in sandy loam soil in round plastic pots of a diameter of 13 cm and covered with a layer of sandy loam of a thickness of about 1 cm. The pots were placed in a greenhouse under favorable growth conditions for a period of about two to three weeks, allowing the plants to reach a growth stage of 2 to 4 leaves. The herbicides in the form of liquid (for example emulsion concentrates) or dry (for example water-dispersible powders) formulations were mixed with a standard additive (based on rapeseed oil methyl ester), diluted with deionized water to the required concentrations and applied to the green parts of the plants and the uncovered part of the soil surface with a spray bar using a water application rate of 300 liters per hectare. In the experiment shown below, safener and the herbicide foramsulfuron were in each case used as 20 percent strength water-dispersible powder (results see table 1.2.1). The pots were placed in a greenhouse under favorable growth conditions. Visual scoring of the herbicidal action was carried out four weeks after the herbicide application. Evaluation was carried out on a percentage basis by comparison with untreated control plants (0%=no noticeable effect compared with the untreated plant, 100%=treated plant dies).

Setaria viridis [1] = assay: as above; settings: four weeks
Description: as §1

[2] = tested on: Zea mays (corn), cv. 'Lorenzo'; assay: Post-emergence application of herbicide after seed dressing with safener, crop damage; settings: for Safener action as % damage reduction in crop plants: ZEAMA; for % damage in ZEAMA: four weeks
Protocol: The number of crop plant seeds required for each application rate of safener was calculated. Sufficient seeds were weighed out into glass bottles having a screw-on lid. The volume of the glass bottles was approximately twice that of the seeds weighed out. The safeners were formulated as 20 percent strength water-dispersible powders. These formulations were weighed out to give the required application rates (g of a.i./kg of seed). The samples were added to the seed in the glass containers, and sufficient water to form a suitable seed dressing was then added. The glass bottles were closed and then mounted in an overhead shaker (which turns the bottles at moderate speed for a period of up to one hour) so that the seeds were uniformly covered with the seed dressing. The bottles were opened and the seed was ready for use in pre-emergence or post-emergence experiments, as described below. The seeds treated with safener and untreated seeds were sown in sandy loam soil in round plastic pots of a diameter of 13 cm and covered with a layer of sandy loam of a thickness of about 1 cm. The pots were placed in a greenhouse under favorable growth conditions for a period of about two to three weeks, allowing the plants to reach a growth stage of 2 to 4 leaves. The herbicides in the form of liquid (for example emulsion concentrates) or dry (for example water-dispersible powders) formulations were mixed with a standard additive (based on rapeseed oil methyl ester), diluted with deionized water to the required concentrations and applied to the green parts of the plants and the uncovered part of the soil surface with a spray bar using a water application rate of 300 liters per hectare. In the experiment shown below, the herbicide foramsulfuron was used as 20 percent strength water-dispersible powder (results see table 2.3.1). The pots were placed in a greenhouse under favorable growth conditions. Visual scoring of the herbicidal action was carried out four weeks after the herbicide application. Evaluation was carried out on a percentage base by comparison with untreated control plants (0%=no noticeable effect compared with the untreated plant, 100%=treated plant dies).

Chenopodium album = assay: Pre-emergence application of herbicide and safener by the tank mix method, herbicidal action on weed; settings: four weeks
Protocol: (§2) Seeds of various crop plants and weed species were sown in sandy loam soil in round plastic pots of a diameter of 13 cm and covered with a layer of sandy loam of a thickness of about 1 cm. Herbicides and safeners in the form of liquid (for example emulsion concentrates) or dry (for example water-dispersible powders) formulations were diluted with deionized water to the required concentration and applied to the surface of the soil with a spray bar using a water application rate of 300 liters per hectare. In the experiment shown below, the safeners were used as 20 percent strength water-dispersible powders and the herbicide isoxaflutole was used as an aqueous suspension concentrate (see table 1.1.1). The pots were placed in a greenhouse under favorable growth conditions. Visual scoring of the herbicidal action was carried out four weeks after the herbicide application. Evaluation was carried out on a percentage basis by comparison with untreated control plants (0%=no noticeable effect compared with the untreated plant, 100%=treated plant dies).

Setaria viridis [3] = assay: as above; settings: four weeks
Protocol: as §2

[4] = tested on: Zea mays (corn), cv. 'Lorenzo'; assay: Post-emergence application of herbicide and safener by the tank mix method, crop damage; settings: for Safener action as % damage reduction in crop plants: ZEAMA, safener 250 g a.i./ha + herbicide H2 40 g a.i./ha; for % damage in ZEAMA: four weeks
Description: as §1

[5] = tested on: Zea mays (corn), cv. 'Lorenzo'; assay: Pre-emergence application of herbicide after seed dressing with safener, crop damage; settings: for Safener action as % damage reduction in crop plants: ZEAMA; for % damage in ZEAMA: four weeks
Protocol: (§3) The number of crop plant seeds required for each application rate of safener was calculated. Sufficient seeds were weighed out into glass bottles having a screw-on lid. The volume of the glass bottles was approximately twice that of the seeds weighed out. The safeners were formulated as 20 percent strength water-dispersible powders. These formulations were weighed out to give the required application rates (g of a.i./kg of seed). The samples were added to the seed in the glass containers, and sufficient water to form a suitable seed dressing was then added. The glass bottles were closed and then mounted in an overhead shaker (which turns the bottles at moderate speed for a period of up to one hour) so that the seeds were uniformly covered with the seed dressing. The bottles were opened and the seed was ready for use in pre-emergence or post-emergence experiments, as described below. The seeds which had been treated with safener and untreated seeds as controls were sown in sandy loam soil in round plastic pots of a diameter of 13 cm and covered with a layer of sandy loam of a thickness of about 1 cm. The herbicides in the form of liquid (for example emulsion concentrates) or dry (for example water-dispersible powders) formulations were diluted with deionized water to the required concentrations and applied to the surface of the soil with a spray bar using a water application rate of 300 liters per hectare. In the two experiments shown below (results see tables 2.2.1 and 2.2.2), the herbicide isoxaflutole was used as an aqueous suspension concentrate. The pots were placed in a greenhouse under favorable growth conditions. Visual scoring of the herbicidal action was carried out four weeks after the herbicide application. Evaluation was carried out on a percentage basis by comparison with untreated control plants (0%=no noticeable effect compared with the untreated plant, […]).

[6] = tested on: Glycine max (soybean), cv. 'Lambert'; assay: as above; settings: for Safener action as % damage reduction in crop plants: GLXMA; for % damage in GLXMA: four weeks
Protocol: as §3

[7] = tested on: Zea mays (corn), cv. 'Lorenzo'; assay: Pre-emergence application of herbicide and safener by the tank mix method, crop damage; settings: for Safener action as % damage reduction in crop plants: ZEAMA, safener 250 g a.i./ha + herbicide H1 100 g a.i./ha
Protocol: as §2

[8] = safener 250 g a.i./ha + herbicide H2 40 g a.i./ha, post-emergence tank mix
[9] = seed dressing with safener 1 g a.i./kg of seed, herbicide H2 40 g a.i./ha post-emergence
[10] = seed dressing with safener 1 g a.i./kg of seed, then herbicide H2 40 g a.i./ha post-emergence
[11] = safener 250 g a.i./ha + herbicide H1 100 g a.i./ha, pre-emergence tank mix
[12] = safener 250 g a.i./ha + herbicide H2 (foramsulfuron) 40 g a.i./ha, post-emergence tank mix
[13] = seed dressing with safener 1 g a.i./kg of seed, herbicide H1 100 g a.i./ha pre-emergence
[14] = seed dressing with safener 1 g a.i./kg of seed, then herbicide H1 100 g a.i./ha pre-emergence
[15] = safener 250 g a.i./ha + herbicide H1 (isoxaflutole) 100 g a.i./ha, pre-emergence tank mix, visual scoring four weeks after application
[16] = herbicide H1 100 g a.i./ha alone, no safener, pre-emergence
[17] = herbicide H1 100 g a.i./ha pre-emergence, untreated seeds (no safener)
[18] = herbicide H2 40 g a.i./ha alone, no safener, post-emergence

Row | Structure (SMILES) | Herbicidal action as % damage in AMARE (Amaranthus retroflexus; [8]) [%] | Herbicidal action as % damage in SETVI (Setaria viridis [1]; [8]) [%] | Safener action as % damage reduction in crop plants [2, 9] [%] | % damage in ZEAMA [2, 10] [%] | Herbicidal action in CHEAL (in %) (Chenopodium album; [11]) [%] | Herbicidal action in SETVI (in %) (Setaria viridis [3]; [11]) [%] | Safener action as % damage reduction in crop plants ([4]; post-emergence tank mix) [%] | % damage in ZEAMA [4, 12] [%] | Safener action as % damage reduction in crop plants [5, 13] [%] | % damage in ZEAMA [5, 14] [%] | Safener action as % damage reduction in crop plants [6, 13] [%] | % damage in GLXMA [6, 14] [%] | Safener action as % damage reduction in crop plants ([7]; pre-emergence tank mix) [%] | % damage in ZEAMA [7, 15] [%] | further results
1 | O=C(O)c1ccc(F)cc1O [Comp. 253, 4-fluorosalicylic acid] | 91 | 93 | 78 | 8 | 90 | 93 | 82 | 7 | 69 | 9 | 63 | 32 | 83 | 4 | –
2 | O=C(O)c1ccc(O)cc1O [Comp. 588, 4-hydroxysalicylic acid] | 95 | 95 | 73 | 10 | 92 | 97 | 74 | 10 | 59 | 12 | 69 | 27 | 61 | 9 | –
3 | CS(=O)(=O)c1cc(C(F)(F)F)ccc1C(=O)c1cnoc1C1CC1 [Herbicide H1, isoxaflutole, reference compound] | – | – | – | – | – | – | – | – | – | – | – | – | – | – | Herbicidal action in CHEAL (in %) (Chenopodium album; [16]): 90%; Herbicidal action in SETVI (in %) (Setaria viridis [3]; [16]): 92%; % damage in ZEAMA [5, 17]: 29%; % damage in GLXMA [6, 17]: 87%; % damage in ZEAMA ([7]; herbicide H1 100 g a.i./ha alone, no safener, pre-emergence, four weeks): 23%
4 | COc1cc(OC)nc(NC(=O)NS(=O)(=O)c2cc(NC=O)ccc2C(=O)N(C)C)n1 [Herbicide H2, foramsulfuron, reference compound] | – | – | – | – | – | – | – | – | – | – | – | – | – | – | Herbicidal action as % damage in AMARE (Amaranthus retroflexus; [18]): 91%; Herbicidal action as % damage in SETVI (Setaria viridis [1]; [18]): 93%; % damage in ZEAMA ([2]; herbicide H2 40 g a.i./ha post-emergence, untreated seeds (no safener)): 37%; % damage in ZEAMA [4, 18]: 39%
